{"source": "patent US6448401B1", "about": "“Process for water soluble azole compounds” (Bristol-Myers Squibb Company, priority 2000, dated 2002)", "key": {"[1]": {"test": "stability (in solution / of salts)", "conditions": "for stability (in words): crystalline salts"}, "aqueous solubility": {"test": "aqueous solubility", "conditions": "for solubility (in words): crystalline salts"}, "[2]": {"test": "conversion of prodrug to parent drug in vivo"}}, "data": [{"smiles": "C[C@@H](c1nc(-c2ccc(C#N)cc2)cs1)[C@@](Cn1cncn1)(OCOP(=O)(O)O)c1ccc(F)cc1F", "note": "[Example 2, (2R,3R)-3-[4-(4-cyanophenyl)thiazol-2-yl]-2-(2,4-difluorophenyl)-1-(1H-1,2,4-triazol-1-yl)-2-[(dihydrogenphosphonoxy)methoxy]butane]", "values": [{"measurement": "stability in solution", "setting": "[1]; in solution", "result": "stable in solution"}, {"measurement": "solubility", "setting": "aqueous solubility; aqueous solution, pH 4.3, aqueous buffer", "result": "5000 to 6000", "unit": "µg/mL"}, {"measurement": "solubility", "setting": "aqueous solubility; aqueous solution, pH 7, aqueous buffer", "result": "> 10000", "unit": "µg/mL"}, {"measurement": "conversion to parent drug in vivo", "setting": "[2]", "result": "readily converted to parent drug in vivo"}]}, {"smiles": "CC(C)(C)N.C[C@@H](c1nc(-c2ccc(C#N)cc2)cs1)[C@@](Cn1cncn1)(OCOP(=O)(O)O)c1ccc(F)cc1F", "note": "[Example 4, Tert-butyl amine salt of (2R,3R)-3-[4-(4-cyanophenyl)thiazol-2-yl]-2-(2,4-difluorophenyl)-1-(1H-1,2,4-triazol-1-yl)-2-[(dihydrogenphosphonoxy)methoxy]butane]", "values": [{"measurement": "stability (in words)", "setting": "[1]", "result": "good solubility and stability"}, {"measurement": "solubility (in words)", "setting": "aqueous solubility", "result": "good solubility"}]}, {"smiles": "C[C@@H](c1nc(-c2ccc(C#N)cc2)cs1)[C@@](Cn1cncn1)(OCOP(=O)(O)O)c1ccc(F)cc1F.NCCCC[C@H](N)C(=O)O.NCCCC[C@H](N)C(=O)O", "note": "[Example 3, Bis lysine salt of (2R,3R)-3-[4-(4-cyanophenyl)thiazol-2-yl]-2-(2,4-difluorophenyl)-1-(1H-1,2,4-triazol-1-yl)-2-[(dihydrogenphosphonoxy)methoxy]butane]", "values": [{"measurement": "stability (in words)", "setting": "[1]", "result": "good solubility and stability"}, {"measurement": "solubility (in words)", "setting": "aqueous solubility", "result": "good solubility"}]}, {"smiles": "C[C@@H](c1nc(-c2ccc(C#N)cc2)cs1)[C@](O)(Cn1cncn1)c1ccc(F)cc1F", "note": "[(2R,3R)-3-[4-(4-cyanophenyl)thiazol-2-yl]-2-(2,4-difluorophenyl)-1-(1 H-1,2,4-triazol-1-yl)-butan-2-ol, reference compound]", "values": [{"measurement": "solubility", "setting": "aqueous solubility; water, pH 6.8, water", "result": 0.6, "unit": "µg/mL"}]}]}
